Consider 18 compounds from patent US12369579B2, “Antimicrobial agents and compositions and uses thereof” (KODA Therapeutics, LLC, priority 2019, dated 2025).

What is called MIC is the lowest concentration found to suppress growth. As a reminder, the MBC is the smallest concentration meeting the test's criterion for killing.

Experiment [1] has as its system H. pylori. In words: MIC by broth microdilution assay against H. pylori. It counts as cell-based. As to conditions: Helicobacter pylori, 72 h. As to the method: (§1) The MIC and MBC of the compounds can be measured with the following procedure: In vitro antibacterial activity was tested using the broth microdilution assay. Experiments were carried out in triplicate using Müller-Hinton broth supplemented with 10% FBS in 96-well plates at a total assay volume of 100 μL. Antimicrobials were tested against H. pylori. Two-fold serial dilutions were prepared between the concentration range 0.01-64 μg/mL. An initial bacterial inoculum was adjusted to OD600=0.06 and incubated with test compounds at 37° C. for 3 days in humidified incubators under the 5% CO2 atmosphere. OD600 was measured and the lowest concentration of compound that inhibited bacterial growth was reported as the MIC. See Gwisai T, et al. Repurposing niclosamide as a versatile antimicrobial surface coating against device-associated, hospital-acquired bacterial infections. Biomed Mater. 2017; 12(4):045010. The pH was adjusted to acidic condition with 1 N HCL. The minimal bactericidal concentration (MBC) was determined by plating 5 μL of broth culture from the MIC assay onto Müller-Hinton agar (BD Biosciences) supplemented with 10% FBS. After 72 h, the lowest concentration at which colonies were not observed was reported as the MBC.
(Broth dilution looks for growth in wells or tubes with falling amounts of substance.)

The subject of experiment [2] is H. pylori. The experiment can be described thus: MBC by plating broth culture from the MIC assay onto Müller-Hinton agar. The class given is cell-based. The note with it: Helicobacter pylori. As to the method:
as §1

Another experiment has as its system H. pylori strain 49503. The experiment can be described thus: MIC against H. pylori strain 49503. The class given is cell-based, Helicobacter pylori. On the procedure: as §1
The next experiment deals with H. pylori strain 43504. In words: MIC against H. pylori strain 43504. The class given is cell-based, Helicobacter pylori. As to the method: as §1
A further experiment relates to H. pylori strain 51932. The experiment can be described thus: MIC against H. pylori strain 51932. The class given is cell-based, Helicobacter pylori. As to the method: as §1
Experiment [3] has as its system H. pylori. In words: MIC in acidic pH environments. As to conditions: Helicobacter pylori. The class given is cell-based. As to the method: as §1
MIC data in acidic pH is shown in Table 6 for selected compounds identified by compound number.

The subject of experiment [4] is H. pylori. The experiment can be described thus: Antibacterial synergy by checkerboard assay (FICI) with antibiotics and proton pump inhibitors. It counts as cell-based, Helicobacter pylori. As to conditions: tested with amoxicillin, clarithromycin, omeprazole and pantoprazole; synergistic effect = FICI ≤0.5. As to the method:
Compounds 1, 13, 15, and 16 were tested with Amoxxicillin, Clarithromycin, Omeprazole, and Pantoprazole.
Antibacterial synergy was tested using the checkerboard assay. The compound of interest was combined with antibiotics and proton pump inhibitors (PPIs). In this series of experiments cultures of H. pylori were adjusted to OD600=0.06 and added to compound pairs that had been serially diluted in the same 96-well plates, vertically for one compound and horizontally for the other. Assays were carried out in triplicate as described in the antibacterial susceptibility assay sub-section. The combinatorial inhibitory concentration was indicated by the FICI. FICI=MICA combination/MICA alone+MICB combination/MICB alone.

Where [5] appears, read: H. pylori, Müller-Hinton broth with 10% FBS, 37° C., 3 days, read-out: MIC.
[6] abbreviates: H. pylori, lowest concentration without colonies after 72 h, read-out: MBC.

Values after ≈ are worked out from the molar mass of the structure shown. Where two headings read alike, the source gives them in different places.

In the case of `CCOP(=O)(N/N=C/c1ccc([N+](=O)[O-])o1)Nc1ccc2c(c1)OCO2` (stereo not shown) [Compound 6], the MIC against H. pylori [1] stood at 2 µg/mL (≈ 5.23 µM). In the experiment on H. pylori [2] (72 h), this compound returned an MBC of 2 µg/mL (≈ 5.23 µM).
Compound `CCOP(=O)(N/N=C/c1ccc([N+](=O)[O-])o1)Nc1ccc(C)cc1` (stereo not shown) [Compound 2] gave an MIC in the experiment with H. pylori [1] of 2 µg/mL (≈ 5.68 µM). The same compound displayed an MBC in the experiment with H. pylori [2] (72 h) of 2 µg/mL (≈ 5.68 µM).
Consider `O=C1CCCc2oc([N+](=O)[O-])cc21` [Compound 12], for which, in the experiment on H. pylori [1] (setting [5]), the MIC stood at 1 µg/mL (≈ 5.52 µM). The minimal bactericidal concentration (MBC) with H. pylori [2] (setting [6]) turned out to be 1 µg/mL (≈ 5.52 µM).
In the experiment on H. pylori [1], `CCOP(=O)(N/N=C/c1ccc([N+](=O)[O-])o1)Nc1ccc(Cl)c(Cl)c1` (stereo not shown) [Compound 5] came in with an MIC of 1 µg/mL (≈ 2.46 µM). The same compound returned an MBC against H. pylori [2] (72 h) of 1 µg/mL (≈ 2.46 µM).
As to `CCOP(=O)(N/N=C1\CCCc2oc([N+](=O)[O-])cc21)Nc1ccccc1` (stereo not shown) [Compound 15], the MIC against H. pylori [1] came to 0.25 µg/mL (≈ 0.661 µM); with H. pylori strain 49503, 0.25 µg/mL (≈ 0.661 µM); against H. pylori strain 43504 it was 1.0 µg/mL (≈ 2.64 µM); in the experiment on H. pylori strain 51932, 0.25 µg/mL (≈ 0.661 µM); with H. pylori [3] (pH 5.5), 0.06 µg/mL (≈ 0.159 µM); in the experiment with H. pylori [3] (pH 6), 0.25 µg/mL (≈ 0.661 µM). The MIC in the experiment with H. pylori [3] (pH 6.5) and in the experiment on H. pylori [3] (pH 7) was 0.25 µg/mL (≈ 0.661 µM) throughout. The MBC in the experiment on H. pylori [2] (72 h) was 0.25 µg/mL (≈ 0.661 µM). Moreover, the “Combination effect with secondary agent (FIG. 1)” value (shortened to “Combination effect”) with H. pylori [4] is “synergistic effect”.
As for `CCOP(=O)(N/N=C/c1ccc([N+](=O)[O-])o1)Nc1ccccc1` (stereo not shown) [Compound 1], the MIC in the experiment on H. pylori [1] is 1 to 2 µg/mL (≈ 2.96 to 5.91 µM); with H. pylori strain 49503, 1.0-2.0 μ/mL; with H. pylori strain 43504, 2.0 µg/mL (≈ 5.91 µM); in the experiment on H. pylori strain 51932, 1.0 µg/mL (≈ 2.96 µM); with H. pylori [3] (pH 5.5), 0.25 µg/mL (≈ 0.739 µM); with H. pylori [3] (pH 6), 1 µg/mL (≈ 2.96 µM). For the same compound, the minimal inhibitory concentration (MIC) with H. pylori [3] (pH 6.5) and against H. pylori [3] (pH 7) was 1 µg/mL (≈ 2.96 µM) throughout. This compound also showed an MBC with H. pylori [2] (72 h) of 2 µg/mL (≈ 5.91 µM). Besides, the “Combination effect” value in the experiment with H. pylori [4] is listed as “synergistic effect”.
Take `Br.Nc1nc2c(s1)CCc1oc([N+](=O)[O-])cc1-2` [Compound 9]: the minimum inhibitory concentration (MIC) in the experiment on H. pylori [1] (setting [5]) is 4 µg/mL. Further, the MBC in the experiment on H. pylori [2] (setting [6]) came to 4 µg/mL.
In the case of `O=C(Nc1ccc([N+](=O)[O-])cc1Cl)c1cc(Cl)ccc1O` [Niclosamide, reference compound], the MIC with H. pylori [1] (setting [5]) was 0.25 µg/mL (≈ 0.764 µM). For the same compound, in the experiment with H. pylori [2] (setting [6]), the MBC stood at 0.5 µg/mL (≈ 1.53 µM).
In the case of `CCOP(=O)(NCc1ccccc1)N/N=C/c1ccc([N+](=O)[O-])o1` (stereo not shown) [Compound 7], the minimal inhibitory concentration (MIC) in the experiment on H. pylori [1] worked out at 2 µg/mL (≈ 5.68 µM). This compound also showed an MBC against H. pylori [2] (72 h) of 2 µg/mL (≈ 5.68 µM).
As to `CCOP(=O)(N/N=C/c1ccc([N+](=O)[O-])o1)Nc1ccc(Cl)cc1` (stereo not shown) [Compound 4], in the experiment with H. pylori [1], the minimal inhibitory concentration (MIC) was found to be 1 µg/mL (≈ 2.68 µM). The minimal bactericidal concentration (MBC) against H. pylori [2] (72 h) is 1 µg/mL (≈ 2.68 µM).
With `Cc1ccc(NP(=O)(N/N=C/c2ccc([N+](=O)[O-])o2)N2CCOCC2)cc1` (stereo not shown) [Compound 8], the MIC with H. pylori [1] (setting [5]) is 4 µg/mL (≈ 10.2 µM). Besides, in the experiment on H. pylori [2] (setting [6]), the MBC is 4 µg/mL (≈ 10.2 µM).
Regarding `O=C(/C=C/c1ccccc1)N/N=C/c1ccc([N+](=O)[O-])o1` [Compound 11], the MIC with H. pylori [1] (setting [5]) was determined as 1 µg/mL (≈ 3.51 µM). In addition, the MBC in the experiment with H. pylori [2] (setting [6]) amounted to 1 µg/mL (≈ 3.51 µM).
Regarding `CCOP(=O)(N/N=C/c1ccc([N+](=O)[O-])o1)Nc1ccc(OC)cc1` (stereo not shown) [Compound 3], in the experiment on H. pylori [1], the MIC turned out to be 2 µg/mL (≈ 5.43 µM). Moreover, the minimal bactericidal concentration (MBC) with H. pylori [2] (72 h) was found to be 2 µg/mL (≈ 5.43 µM).
Turning to `O=C(/C=C/c1ccccc1)N/N=C1\CCCc2oc([N+](=O)[O-])cc21` [Compound 16], the minimum inhibitory concentration (MIC) in the experiment on H. pylori [1] (setting [5]) came to 0.25 µg/mL (≈ 0.768 µM); with H. pylori strain 43504, 1.0 µg/mL (≈ 3.07 µM); with H. pylori [3] (pH 5.5, read-out: MIC) it was 0.06 µg/mL (≈ 0.184 µM); in the experiment on H. pylori [3] (pH 6.5, read-out: MIC) it was 0.25 µg/mL (≈ 0.768 µM); with H. pylori [3] (pH 6.0, read-out: MIC), 0.25 µg/mL (≈ 0.768 µM); in the experiment on H. pylori [3] (pH 7.0, read-out: MIC) it was 0.25 µg/mL (≈ 0.768 µM). Also, the MBC in the experiment on H. pylori [2] (setting [6]) was 0.25 µg/mL (≈ 0.768 µM). Further, the “Combination effect” value in the experiment on H. pylori [4] was “synergistic effect”.
Take `NC(=O)N/N=C1/CCCc2oc([N+](=O)[O-])cc21` [Compound 13]: the MIC with H. pylori [1] (setting [5]) is 0.25 µg/mL (≈ 1.05 µM); in the experiment with H. pylori strain 43504, 0.5 µg/mL (≈ 2.1 µM); with H. pylori [3] (pH 5.5, read-out: MIC), 0.06 µg/mL (≈ 0.252 µM); with H. pylori [3] (pH 6.5, read-out: MIC) it was 0.25 µg/mL (≈ 1.05 µM); in the experiment on H. pylori [3] (pH 6.0, read-out: MIC) it was 0.25 µg/mL (≈ 1.05 µM); in the experiment with H. pylori [3] (pH 7.0, read-out: MIC), 0.25 µg/mL (≈ 1.05 µM). Besides, in the experiment on H. pylori [2] (setting [6]), the MBC turned out to be 0.25 µg/mL (≈ 1.05 µM). In the experiment on H. pylori [4], the “Combination effect” value was “synergistic effect”.
For `Br.CNc1nc2c(s1)CCc1oc([N+](=O)[O-])cc1-2` [Compound 10], the MIC in the experiment with H. pylori [1] (setting [5]) came to 4 µg/mL. For the same compound, in the experiment on H. pylori [2] (setting [6]), the MBC was 4 µg/mL.
In the case of `CC1(C)S[C@@H]2[C@H](NC(=O)[C@H](N)c3ccc(O)cc3)C(=O)N2[C@H]1C(=O)O` [Amoxicillin, reference compound], the minimum inhibitory concentration (MIC) in the experiment on H. pylori [1] (setting [5]) turned out to be 0.01 µg/mL (≈ 0.0274 µM). In the experiment with H. pylori [2] (setting [6]), the MBC worked out at 0.025 µg/mL (≈ 0.0684 µM).
For the compound `O=[N+]([O-])c1ccc(/C=N/N=C/c2ccc([N+](=O)[O-])o2)o1` [Compound 14], in the experiment on H. pylori [1], it took 4 µg/mL (≈ 14.4 µM) to inhibit growth (MIC). The minimum bactericidal concentration (MBC) in the experiment on H. pylori [2] (72 h) was 4 µg/mL (≈ 14.4 µM).
